The target in test [1] is T1, hVR1 (Homo sapiens, UniProt Q8NER1).
T1 construct: expressed in transfected cells; host or cells: CHO K1 cells (ECACC), stably transfected
Put plainly: Functional test on hVR1 after pH stimulus. It counts as cell-based, human being. Details: key to IC50 (human being) hVR1, pH: agonist / partial agonist / no effect: AG=agonist; pAG=partial agonist; NE=no effect. The note with it: for inhibition at 10 µM: read-out: IC50 (human being) hVR1, pH: inhibition (as a percentage).

In test [2] the target is T1, hVR1. Kind of test: Functional test on human VR1, NADA (N-arachidonoyl dopamine) stimulus. The format is cell-based, human being. Details: key to Ki (human being) NADA: agonist / partial agonist / no effect: AG=agonist; pAG=partial agonist; NE=no effect. The settings on record: for Ki: includes values given in brackets after pAG, read-out: Ki (human being) [nM] NADA. An excerpt: II. Functional Tests Carried Out on the Vanilloid Receptor (VR1)
The agonistic or antagonistic effect of the substances to be tested on the vanilloid receptor 1 (VR1) can also be determined using the following assay. In this assay, the influx of Ca^2+ through the channel is quantified with the aid of a Ca^2+-sensitive dye (type Fluo-4, Molecular Probes Europe BV, Leiden, the Netherlands) in a fluorescent imaging plate reader (FLIPR, Molecular Devices, Sunnyvale, USA).
Chinese hamster ovary cells (CHO K1 cells, European Collection of Cell Cultures (ECACC) United Kingdom) are stably transfected with the VR1 gene. For functional testing, these cells are plated out on poly-D-lysine-coated black 96-well plates having a clear base (BD Biosciences, Heidelberg, Germany) at a density of 25,000 cells/well. The cells are incubated overnight at 37° C. and 5% CO2 in a culture medium (Ham's F12 nutrient mixture, 10% by volume of FCS (foetal calf serum), 18 μg/ml of L-proline). The next day the cells are incubated with Fluo-4 (Fluo-4 2 μM, 0.01% by volume of Pluronic F127, Molecular Probes in HBSS (Hank's buffered saline solution), Gibco Invitrogen GmbH, Karlsruhe, Germany) for 30 minutes at 37° C. Subsequently, the plates are washed three times with HBSS buffer and after further incubation for 15 minutes at RT used for Ca^2+ measurement in a FLIPR assay. The Ca^2+-dependent fluorescence is measured before and after the addition of the substances to be tested (λex wavelength=488 nm, λem=540 nm). Quantification is carried out by measuring the highest fluorescence intensity (FC, fluorescence counts) over time.
The FLIPR protocol consists of 2 substance additions. First the compounds to be tested (10 μM) are pipetted onto the cells and the Ca^2+ influx is compared with the control (capsaicin 10 μM) (% activation based on the Ca^2+ signal after the addition of 10 μM of capsaicin). […]
Desensitising agonists and antagonists led to suppression of the Ca^2+ influx. The % inhibition is calculated compared to the maximum achievable inhibition with 10 μM of capsaicin.
Starting from the percentage displacement caused by different concentrations of the compounds to be tested of general formula I, IC50 inhibitory concentrations which cause a 50-per cent displacement of capsaicin were calculated. Ki values for the test substances were obtained by conversion by means of the Cheng-Prusoff equation (Cheng, Prusoff; Biochem. Pharmacol. 22, 3099-3108, 1973).
NADA=N-arachidonoyl dopamine

For test [3], the target named is T1, hVR1. Put plainly: Functional test on human VR1, 45° C. stimulus. It counts as cell-based, human being. More on the design: key to IC50 (human being), 45° C.: agonist / partial agonist / no effect: AG=agonist; pAG=partial agonist; NE=no effect. The settings on record: for IC50: read-out: IC50 (human being) [nM], 45° C.
Test [4] addresses T1, hVR1. Kind of test: Functional test on VR1, FLIPR Ca2+ influx in transfected CHO K1 cells, capsaicin. The format is cell-based, human being. More on the design: key to Ki (human being) [nM] Cap: agonist / partial agonist / no effect: AG=agonist; pAG=partial agonist; NE=no effect. The note with it: for Ki: capsaicin (Cap), includes values given in brackets after pAG, read-out: Ki (human being) [nM] Cap.

For test [5], the target named is T2, rat-species vanilloid receptor 1 (VR1/TRPV1) (Rattus norvegicus, UniProt O35433).
T2 construct: endogenous in cells; host or cells: primary cells dissociated from rat dorsal root ganglia (DRG), cultured 2-3 days with NGF
Put plainly: Functional testing on the vanilloid receptor 1, FLIPR Ca2+ influx in rat DRG cells, capsaicin. The format is cell-based. Details: key to Ki (rat) [nM] Cap: agonist / partial agonist / no effect: AG=agonist; pAG=partial agonist; NE=no effect. The settings on record: for Ki: capsaicin (Cap), includes values given in brackets after pAG. From the text: I. Functional Testing Carried Out on the Vanilloid Receptor 1 (VRI/TRPV1 Receptor)
The agonistic or antagonistic effect of the substances to be tested on the rat-species vanilloid receptor 1 (VR1/TRPV1) can be determined using the following assay. In this assay, the influx of Ca^2+ through the receptor channel is quantified with the aid of a Ca^2+-sensitive dye (type Fluo-4, Molecular Probes Europe BV, Leiden, the Netherlands) in a fluorescent imaging plate reader (FLIPR, Molecular Devices, Sunnyvale, USA).
Complete medium: 50 ml HAMS F12 nutrient mixture (Gibco Invitrogen GmbH, Karlsruhe, Germany) with
10% by volume of FCS (foetal calf serum, Gibco Invitrogen GmbH, Karlsruhe, Germany, heat-inactivated);
2 mM L-glutamine (Sigma, Munich, Germany);
1% by weight of AA solution (antibiotic/antimyotic solution, PAA, Pasching, Austria) and 25 ng/ml NGF medium (2.5 S, Gibco Invitrogen GmbH, Karlsruhe, Germany)
Cell culture plate: Poly-D-lysine-coated, black 96-well plates having a clear base (96-well black/clear plate, BD Biosciences, Heidelberg, Germany) are additionally coated with laminin (Gibco Invitrogen GmbH, Karlsruhe, Germany), the laminin being diluted with PBS (Ca—Mg-free PBS, Gibco Invitrogen GmbH, Karlsruhe, Germany) to a concentration of 100 μg/ml. Aliquots having a laminin concentration of 100 μg/ml are removed and stored at −20° C. The aliquots are diluted with PBS in a ratio of 1:10 to 10 μg/ml of laminin and respectively 50 μL of the solution are pipetted into a recess in the cell culture plate. The cell culture plates are incubated for at least two hours at 37° C., the excess solution is removed by suction and the recesses are each washed twice with PBS. The coated cell culture plates are stored with excess PBS which is not removed until just before the feeding of the cells.
Preparation of the Cells:
The vertebral column is removed from decapitated rats and placed immediately into cold HBSS buffer (Hank's buffered saline solution, Gibco Invitrogen GmbH, Karlsruhe, Germany), i.e. buffer located in an ice bath, mixed with 1% by volume (per cent by volume) of an AA solution (antibiotic/antimyotic solution, PAA, Pasching, Austria). The vertebral column is cut longitudinally and removed together with fasciae from the vertebral canal. Subsequently, the dorsal root ganglia (DRG) are removed and again stored in cold HBSS buffer mixed with 1% by volume of an AA solution. The DRG, from which all blood remnants and spinal nerves have been removed, are transferred in each case to 500 μL of cold type 2 collagenase (PAA, Pasching, Austria) and incubated for 35 minutes at 37° C. After the addition of 2.5% by volume of trypsin (PAA, Pasching, Austria), incubation is continued for 10 minutes at 37° C. After complete incubation, the enzyme solution is carefully pipetted off and 500 μL of complete medium are added to each of the remaining DRG. The DRG are respectively suspended several times, drawn through cannulae No. 1, No. 12 and No. 16 using a syringe and transferred to a 50 ml Falcon tube which is filled up to 15 ml with complete medium. The contents of each Falcon tube are respectively filtered through a 70 μm Falcon filter element and centrifuged for 10 minutes at 1,200 rpm and RT. The resulting pellet is respectively taken up in 250 μL of complete medium and the cell count is determined.
The number of cells in the suspension is set to 3×10^5 per ml and 150 μL of this suspension are in each case introduced into a recess in the cell culture plates coated as described hereinbefore. In the incubator the plates are left for two to three days at 37° C., 5% by volume of CO2 and 95% relative humidity. […]

Test [6] deals with T1, hVR1. Put plainly: Functional test on VR1, FLIPR Ca2+ influx in transfected CHO K1 cells, capsaicin. The format is cell-based. The settings on record: capsaicin (Cap), read-out: Ki (human being) Cap column: inhibition (as a percentage).

T2 sequence (O35433 whole entry): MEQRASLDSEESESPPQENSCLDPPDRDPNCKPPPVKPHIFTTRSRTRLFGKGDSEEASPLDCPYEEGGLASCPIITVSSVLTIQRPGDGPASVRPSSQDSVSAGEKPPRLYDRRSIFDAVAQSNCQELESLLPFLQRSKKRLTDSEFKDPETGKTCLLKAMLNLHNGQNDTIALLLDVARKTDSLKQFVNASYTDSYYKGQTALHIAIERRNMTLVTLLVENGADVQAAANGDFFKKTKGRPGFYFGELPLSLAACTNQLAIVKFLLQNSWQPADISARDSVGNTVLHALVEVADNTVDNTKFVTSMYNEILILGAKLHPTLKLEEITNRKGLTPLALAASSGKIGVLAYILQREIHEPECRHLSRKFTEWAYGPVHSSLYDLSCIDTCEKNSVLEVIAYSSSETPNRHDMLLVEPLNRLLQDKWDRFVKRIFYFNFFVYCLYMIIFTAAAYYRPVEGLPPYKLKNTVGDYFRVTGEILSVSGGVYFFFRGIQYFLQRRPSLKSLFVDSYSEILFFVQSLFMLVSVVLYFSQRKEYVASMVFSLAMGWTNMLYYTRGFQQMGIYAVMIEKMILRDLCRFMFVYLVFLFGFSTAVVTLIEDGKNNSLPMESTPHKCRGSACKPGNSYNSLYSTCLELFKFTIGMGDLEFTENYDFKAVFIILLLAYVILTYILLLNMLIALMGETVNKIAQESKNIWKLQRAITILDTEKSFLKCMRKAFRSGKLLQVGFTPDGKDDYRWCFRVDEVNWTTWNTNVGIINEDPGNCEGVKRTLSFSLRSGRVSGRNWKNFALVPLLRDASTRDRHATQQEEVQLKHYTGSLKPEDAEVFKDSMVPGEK
T1 sequence (Q8NER1 whole entry): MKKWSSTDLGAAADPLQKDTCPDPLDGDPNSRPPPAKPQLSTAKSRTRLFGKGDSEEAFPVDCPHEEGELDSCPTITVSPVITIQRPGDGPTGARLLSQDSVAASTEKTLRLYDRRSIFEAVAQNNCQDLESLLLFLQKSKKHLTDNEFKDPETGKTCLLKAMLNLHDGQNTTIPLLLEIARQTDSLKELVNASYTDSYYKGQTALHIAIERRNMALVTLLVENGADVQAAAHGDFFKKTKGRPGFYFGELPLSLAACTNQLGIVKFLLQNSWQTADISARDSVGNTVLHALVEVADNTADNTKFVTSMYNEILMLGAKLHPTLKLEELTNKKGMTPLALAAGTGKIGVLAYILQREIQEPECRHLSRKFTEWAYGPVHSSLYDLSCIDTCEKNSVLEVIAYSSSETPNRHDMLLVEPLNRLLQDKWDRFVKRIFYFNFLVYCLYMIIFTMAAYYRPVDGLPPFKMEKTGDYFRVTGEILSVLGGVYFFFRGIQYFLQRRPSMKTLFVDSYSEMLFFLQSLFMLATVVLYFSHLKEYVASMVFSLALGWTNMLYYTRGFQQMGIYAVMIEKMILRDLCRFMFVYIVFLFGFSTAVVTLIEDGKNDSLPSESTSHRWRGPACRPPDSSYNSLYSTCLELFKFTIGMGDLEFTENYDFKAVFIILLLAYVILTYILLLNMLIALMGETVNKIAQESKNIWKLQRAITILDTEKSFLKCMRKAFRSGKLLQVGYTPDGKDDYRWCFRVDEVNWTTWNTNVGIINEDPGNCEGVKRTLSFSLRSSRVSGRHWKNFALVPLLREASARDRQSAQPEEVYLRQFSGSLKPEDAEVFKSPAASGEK

As usually defined, the Ki is the equilibrium dissociation constant of an inhibitor or competing ligand from its target. `CC(C)(C)c1cc(CNC(=O)Nc2cccc3cnccc23)n(-c2cccc(Cl)c2)n1` [Example 109, 1-((3-tert-butyl-1-(3-chlorophenyl)-1H-pyrazol-5-yl)methyl)-3-(isoquinolin-5-yl)urea]: the “IC50 (human being) hVR1, pH: agonist / partial agonist / no effect” value at hVR1 [1] was “pAG”. The “Ki (human being) NADA: agonist / partial agonist / no effect” value at hVR1 [2] is on record as “pAG”. Also, the “IC50 (human being), 45° C.: agonist / partial agonist / no effect” value on hVR1 [3] is “pAG”. At hVR1 [4], the “Ki (human being) [nM] Cap: agonist / partial agonist / no effect” value was “pAG” and the Ki is 0.2 nM.
Take `CC(C(=O)NCc1cc(C(C)(C)C)nn1-c1cccc(Cl)c1)c1ccc2cc(O)ccc2c1` (centres unmarked) [Example 49, N-((3-tert-butyl-1-(3-chlorophenyl)-1H-pyrazol-5-yl)methyl)-2-(6-hydroxynaphthalen-2-yl)propanamide]: the “IC50 (human being) hVR1, pH: agonist / partial agonist / no effect” value on hVR1 [1] is reported as “AG”. For the same molecule, on hVR1 [2], the “Ki (human being) NADA: agonist / partial agonist / no effect” value is “AG”. In addition, the “IC50 (human being), 45° C.: agonist / partial agonist / no effect” value at hVR1 [3] is recorded as “AG”. At hVR1 [4], the “Ki (human being) [nM] Cap: agonist / partial agonist / no effect” value is reported as “AG”.
A word on the inhibition: it is the drop in the measured response relative to a control, in per cent. As usually defined, the IC50 is the point on the concentration scale where inhibition reaches its midpoint. In the case of `CC(C(=O)NCc1cc(C(C)(C)C)nn1-c1cccc(Cl)c1)c1cccc2ccc(O)cc12` (centres unmarked) [Example 57, N-((3-tert-butyl-1-(3-chlorophenyl)-1H-pyrazol-5-yl)methyl)-2-(7-hydroxynaphthalen-1-yl)propanamide], the inhibition at 10 µM at hVR1 [1] was determined as 13%. Further, the Ki amounted to 0.1 nM at hVR1 [2], 4.2 nM in test [5] and 1.6 nM at hVR1 [4]. The IC50 at hVR1 [3] is 25.6 nM.
Taken in the same sequence, the figures for `CC(C(=O)NCc1cc(C(F)(F)F)nn1-c1cccc(Cl)c1)c1cccc2[nH]ncc12` (centres unmarked) [Example 27, N-((1-(3-chlorophenyl)-3-(trifluoromethyl)-1H-pyrazol-5-yl)methyl)-2-(1H-indazol-4-yl)propanamide] were 13%, 0.008 nM, 11.2 nM, 1.1 nM and 297 nM.
As to `COc1ccc(Cn2nc(C(F)(F)F)cc2CNC(=O)C(C)c2ccc3c(c2)OCCO3)cc1` (centres unmarked) [Example 202, 2-(2,3-dihydrobenzo[b][1,4]dioxin-6-yl)-N-((1-(4-methoxybenzyl)-3-(trifluoromethyl)-1H-pyrazol-5-yl)methyl)propanamide], on hVR1 [6], the inhibition at 5 µM is 13%.
For `CC(C(=O)NCc1cc(C(C)(C)C)nn1-c1cccc(Cl)c1)c1ccc2c(c1)CCN2S(C)(=O)=O` (centres unmarked) [Example 10, N-((3-tert-butyl-1-(3-chlorophenyl)-1H-pyrazol-5-yl)methyl)-2-(1-(methylsulphonyl)indolin-5-yl)propanamide], the inhibition at 10 µM on hVR1 [1] is 42%. Also, at hVR1 [2], the “Ki (human being) NADA: agonist / partial agonist / no effect” value is given as “pAG”. At hVR1 [3] (@ 2 μM, read-out: IC50 (human being), 45° C.: inhibition (as a percentage)), the inhibition at 2 µM was found to be 6%. Besides, at hVR1 [4], the “Ki (human being) [nM] Cap: agonist / partial agonist / no effect” value is reported as “pAG” and the Ki was 75.4 nM.
Regarding `CC(C(=O)NCc1cc(C(F)(F)F)nn1-c1ccc(Cl)cc1)c1cccc2cnccc12` (centres unmarked) [Example 68, N-((1-(4-chlorophenyl)-3-(trifluoromethyl)-1H-pyrazol-5-yl)methyl)-2-(isoquinolin-5-yl)propanamide], on hVR1 [1], the inhibition at 10 µM came out at 33%. For the same molecule, the inhibition constant (Ki) came to 0.04 nM at hVR1 [2] and 0.3 nM on hVR1 [4]. The IC50 at hVR1 [3] was 245 nM.
For `CC(C(=O)NCc1cc(C(C)(C)C)nn1-c1ccc(F)c(Cl)c1)c1cccc2cnccc12` (centres unmarked) [Example 69, N-((3-tert-butyl-1-(3-chloro-4-fluorophenyl)-1H-pyrazol-5-yl)methyl)-2-(isoquinolin-5-yl)propanamide], the inhibition at 10 µM was determined as 13% on hVR1 [1] and 26% on hVR1 [3] (@ 10 μM, read-out: IC50 (human being), 45° C.: inhibition (as a percentage)). For the same molecule, the values for the Ki (at hVR1 [2]; in test [5]; on hVR1 [4]) were 0.004 nM, 0.9 nM and 0.2 nM, respectively. Moreover, in test [5], the “Ki (rat) [nM] Cap: agonist / partial agonist / no effect” value is on record as “pAG”.
